Patent publication US7579356B2, “Thia-tetraazaacenaphthylene kinase inhibitors” (Janssen Pharmaceutica NV, priority 2005, dated 2009)
Where “and” joins values, the source holds several entries; their conditions need not be identical. Identical values can stand only once.

How the values were obtained:
[1] = system: SKBR3 breast carcinoma; assay: Cell Proliferation Inhibition Assay, SKBR3 (14C-thymidine); assay type: cell-based; conditions: Homo sapiens, SK-BR-3, C14 method
Description: (§1) Cell Proliferation Inhibition Assay
(§2) The ability of a test compound to inhibit unregulated cell proliferation may be determined by measuring incorporation of ^14C-labelled thymidine into newly synthesized DNA within cell lines derived from carcinomas originating from several tissues. Accordingly, the effect of a test compound on proliferation of cells with a variety of phenotypes may be determined.
(§3) Carcinoma cell lines used include the HeLa cervical adenocarcinoma from the American Type Culture Collection (ATCC Cat. #CCL2), A375 malignant melanoma (ATCC Cat. #CRL-1619), HCT-116 colon carcinoma (ATCC Cat. #CCL-247), SKBR3 breast carcinoma (ATCC Cat. #HTB-30) and BT474 breast carcinoma (ATCC Cat. #HTB-20).
(§4) The carcinoma cells were trypsinized and counted. The cells (3000-8000 count) were added to each well of a 96-well CytoStar tissue culture treated scintillating microplate (Amersham #RPNQ0160) in complete medium (100 μL) and the plate was then incubated in complete medium for 24 hrs at 37° C. in an inert atmosphere containing 5% CO2.
(§5) Test compound (1 μL) in 100% DMSO was added to the plate test-wells with DMSO only added to control-wells. The plate was incubated in complete medium for a second 24 hr period at 37° C. in an atmosphere containing 5% CO2.
(§6) An aliquot of a solution of Methyl ^14C-thymidine (56 mC/mmol) (NEN #NEC568 or AMersham #CFA532) and complete medium (20 uL to provide 0.2 μCl/well) was then added to each well and the plate was incubated for a third 24 hr period at 37° C. in an atmosphere containing 5% CO2.
(§7) The plate contents were then discarded, the plate washed twice with PBS (200 μL) and then PBS (200 μL) was added to each well. The plate was sealed and the degree of methyl ^14C-thymidine incorporation was quantified on a Packard Top Count.
(§8) Cell proliferation of the Hela cell line was measured using the ATP-Lite method as described in the ATP Lite Kit (Perkin-Elmer Kit Number 6106941) or the C^14 method as described above. Cell proliferation of the other cell lines was measured using the C^14 method.

[2] = system: BT474 breast carcinoma; assay: Cell Proliferation Inhibition Assay, BT474 (14C-thymidine); assay type: cell-based; conditions: Homo sapiens, BT-474, C14 method
Description: as §1, §2, §3, §4, §5, §6, §7, §8

[3] = target: T1, HER-2 (Homo sapiens, UniProt P04626); assay: HER-2 Kinase Assay; assay type: biochemical; conditions: for inhibition at 1 µM: test concentration of 1 μM; for IC50: value in parentheses
T1 construct: His6 with thrombin site (N); purchased Proqinase (Freiburg, Germany)
T1 sequence (P04626 679-1255): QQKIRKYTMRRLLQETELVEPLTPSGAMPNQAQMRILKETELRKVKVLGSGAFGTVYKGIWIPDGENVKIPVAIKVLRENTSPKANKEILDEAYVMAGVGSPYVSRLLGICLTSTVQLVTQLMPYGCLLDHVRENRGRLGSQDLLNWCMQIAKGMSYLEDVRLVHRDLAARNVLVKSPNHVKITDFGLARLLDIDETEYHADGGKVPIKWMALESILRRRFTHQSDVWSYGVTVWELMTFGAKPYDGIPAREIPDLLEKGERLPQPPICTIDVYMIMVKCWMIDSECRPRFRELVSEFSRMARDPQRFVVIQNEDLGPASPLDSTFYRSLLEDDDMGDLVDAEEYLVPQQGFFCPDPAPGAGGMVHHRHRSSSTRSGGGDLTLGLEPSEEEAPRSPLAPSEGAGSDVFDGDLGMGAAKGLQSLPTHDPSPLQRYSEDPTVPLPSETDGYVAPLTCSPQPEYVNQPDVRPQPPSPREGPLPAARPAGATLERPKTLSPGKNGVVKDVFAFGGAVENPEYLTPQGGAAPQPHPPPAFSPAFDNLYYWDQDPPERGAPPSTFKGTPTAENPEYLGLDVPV
Outline: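 Read-out was scintillation counting of 33P incorporated into biotinylated polyGluTyr captured on streptavidin plates. Reactions ran 1 h at 30 °C with GST-fused HER-2 residues 679–1255, 1 μM ATP, Mn2+ and Mg2+ at pH 7.5; data given as percent inhibition at 1 μM, with IC50 where determined.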

[4] = target: T2, EGFR (Homo sapiens, UniProt P00533); assay: EGFR Kinase Assay; assay type: biochemical; conditions: GST-EGFR, ATP 5 μM
T2 construct: The intracellular portion of EGFR started at nucleotide 2189 (corresponding to amino acid 667) and ended at the termination codon; made in house; host or cells: Sf9 insect cells (baculovirus)
T2 sequence (P00533 669-1210 limits assumed): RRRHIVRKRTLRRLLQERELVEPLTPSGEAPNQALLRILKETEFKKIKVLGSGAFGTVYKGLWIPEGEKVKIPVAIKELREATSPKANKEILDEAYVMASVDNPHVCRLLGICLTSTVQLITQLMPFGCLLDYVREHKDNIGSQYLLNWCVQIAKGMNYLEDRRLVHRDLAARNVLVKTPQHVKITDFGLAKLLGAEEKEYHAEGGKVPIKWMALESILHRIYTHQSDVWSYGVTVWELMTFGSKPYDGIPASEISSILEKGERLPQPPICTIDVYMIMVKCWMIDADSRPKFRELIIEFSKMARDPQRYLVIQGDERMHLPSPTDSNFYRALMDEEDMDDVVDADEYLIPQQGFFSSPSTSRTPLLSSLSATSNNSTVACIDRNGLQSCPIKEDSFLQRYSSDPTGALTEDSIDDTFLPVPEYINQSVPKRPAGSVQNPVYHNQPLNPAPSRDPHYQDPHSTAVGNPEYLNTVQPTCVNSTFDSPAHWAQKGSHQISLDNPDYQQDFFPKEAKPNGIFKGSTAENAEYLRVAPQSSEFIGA
Outline: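 Potency came from triplicate 16-point half-log titrations starting at 200 uM, with IC50 fitted from % inhibition against log concentration, or % inhibition at 2 μM otherwise. Reaction: Sf9-made GST–EGFR cytoplasmic region (aa 667 onward), biotin-polyGluTyr, 5 μM ATP with 33P tracer, pH 8.0 Tris/Mg/vanadate/DTT, 30 °C for 1 h; captured on streptavidin Flashplates and counted.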

[5] = system: HeLa cervical adenocarcinoma; assay: Cell Proliferation Inhibition Assay, Hela (ATP Lite); assay type: cell-based; conditions: Homo sapiens, ATP-Lite method
Description: as §1, §2, §3, §4, §5, §8

[6] = system: N87 cells; assay: In Vivo Models - Inhibition of Tumor Growth, N87; conditions: Mus musculus, po, 720 h, oral daily for 30 days, athymic mice, read-out: percent inhibition N87
Description: (§9) In Vivo Models—Inhibition of Tumor Growth
(§10) The ability of test compounds to inhibit unregulated growth of human tumor cells in vivo was evaluated by implanting human tumor cells into the hindflank of athymic mice, administering a test compound and then quantifying any change in tumor size.
(§11) Human epidermoid A431 carcinoma, N87 cells and BT474 cells were implanted subcutaneously into the hindflank of female athymic mice (Charles River) and allowed to grow for 6-10 days. After a measurable tumor was established (as determined by baseline caliper measurement), the animal was administered an oral dose of the test compound daily for a period of 30 days. Tumor size was measured every five days and the degree of inhibition was determined by comparing drug-treated animals to vehicle-treated animals.
(§12) Variations of this method are intended to include intraperitoneal injection or intravenous infusion as the route of administration and administration of the test compound either alone or in a combination therapy.
(§13) The inhibition of tumor growth values are shown in Table 8 at various test concentrations, as indicated. For compounds with multiple values at one test concentration, each value represents a separate assay result.

[7] = target: T3, HER-4 (Homo sapiens, UniProt Q15303); assay: HER-4 Kinase Assay; assay type: biochemical
T3 construct: His6 with thrombin site (N); purchased Proqinase (Freiburg, Germany)
T3 sequence (Q15303 676-1307): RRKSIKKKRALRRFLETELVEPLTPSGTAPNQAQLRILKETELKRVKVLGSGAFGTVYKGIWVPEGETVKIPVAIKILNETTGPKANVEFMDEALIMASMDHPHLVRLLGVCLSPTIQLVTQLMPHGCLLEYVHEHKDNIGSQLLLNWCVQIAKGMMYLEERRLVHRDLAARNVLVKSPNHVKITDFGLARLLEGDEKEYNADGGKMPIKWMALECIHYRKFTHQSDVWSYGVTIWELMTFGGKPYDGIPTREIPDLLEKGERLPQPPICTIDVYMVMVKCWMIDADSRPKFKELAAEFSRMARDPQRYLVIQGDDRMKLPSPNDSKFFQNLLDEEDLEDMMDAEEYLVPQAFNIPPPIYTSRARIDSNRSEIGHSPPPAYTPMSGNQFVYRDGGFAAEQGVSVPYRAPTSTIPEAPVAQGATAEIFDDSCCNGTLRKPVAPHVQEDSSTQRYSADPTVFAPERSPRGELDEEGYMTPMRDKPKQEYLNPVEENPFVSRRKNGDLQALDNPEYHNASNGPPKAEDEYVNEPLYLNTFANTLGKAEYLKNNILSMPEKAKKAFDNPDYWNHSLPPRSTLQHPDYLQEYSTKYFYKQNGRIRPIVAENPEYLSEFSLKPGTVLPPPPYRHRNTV
Description: The HER-4 kinase used was purified at Proqinase (Freiburg, Germany) from a construct that consisted of a fusion of GST (Glutathione-S-Transferase), HIS6-Thrombin and the nucleotides encoding amino acids 676 to 1307 of HER-4 (Accession NM 005235).
A mixture of a 10× kinase reaction buffer (600 mM Hepes at pH 7.5, 30 mM Magnesium Chloride, 0.03 mM Sodium Vanadate and 500 μg/mL PEG 20,000), DTT (1.2 mM final from a 10 mM) stock), ATP (1 μM from a 10 mM stock), biotinylated polyGluTyr (1.5 ng/μL final from stock of 1 μg/μL) prepared by Upstate Biotechnologies, Lake Placid, N.Y.), Manganese Chloride (3 mM final from a 1 M stock), γ-^33P-ATP (10 μCl/mL stock) and water (70 μL/well) was added to each well of a Streptavidin Flashplate (Cat. # SMP103, NEN, Boston, Mass.).
Test compound stock (1 μL) was added to the appropriate wells. Diluted GST HER-4 kinase (6.7 ng/μL diluted into 50 mM Tris-HCl at pH 8.0 and 0.1% bovine serum albumin) (30 μL) was added (total volume of 200 ng/well) to initiate the reactions.
The reaction plates were incubated at 30° C. for 1 hr. The reaction was terminated by aspirating the reaction mixture from the plate wells and washing the wells three times with a 1×PBS stop buffer (300 μL) and 100 mM EDTA. After the final wash, the same stop buffer (200 μL) was again added to the wells. The plates were then sealed and read on the TopCount scintillation counter.
For a series of test concentrations, the IC50 was derived by graphing percent inhibition against the log of the concentrations tested for a given compound.

[8] = system: Human epidermoid A431 carcinoma; assay: In Vivo Models - Inhibition of Tumor Growth, A431; conditions: oral daily for 30 days, athymic mice
Description: as §9, §10, §11, §12, §13

[9] = system: BT474 cells; assay: In Vivo Models - Inhibition of Tumor Growth, BT474; conditions: 100 mg/kg, oral daily for 30 days, athymic mice
Description: as §9, §10, §11, §12, §13

IC50 [1] [nM]	IC50 [2] [nM]	inhibition at 1 µM [3] [%]	IC50 [4] [nM]	IC50 [5] [nM]	IC50 [3] [nM]	IC50 [7] [nM]	SMILES	inhibition in vivo at 100 mg/kg [6] [%]	percent inhibition A431 ([8]; 100 mg/kg)	inhibition in vivo at 25 mg/kg ([6]; 25 mg/kg) [%]	inhibition in vivo at 50 mg/kg ([6]; 50 mg/kg) [%]	percent inhibition BT474 [9] [%]	percent inhibition A431 ([8]; 10 mg/kg) [%]	percent inhibition A431 ([8]; 30 mg/kg) [%]
9720	9580	59	9	42600	–	–	O=C(Nc1ccc(CN2CCCCC2)cc1)c1sc2ncnc3c2c1NC(=O)N3c1ccc(F)c(Cl)c1 [Cpd 3, 5-(3-chloro-4-fluoro-phenyl)-4-oxo-4,5-dihydro-3H-1-thia-3,5,6,8-tetraaza-acenaphthylene-2-carboxylic acid (4-piperidin-1-ylmethyl-phenyl)-amide]	–	–	–	–	–	–	–
26900	≥ 10000	45	104	59000	–	–	COc1cc(NC(=O)c2sc3ncnc4c3c2NC(=O)N4c2cccc(Br)c2)ccc1OCCN1CCCCC1 [Cpd 63, 5-(3-bromo-phenyl)-4-oxo-4,5-dihydro-3H-1-thia-3,5,6,8-tetraaza-acenaphthylene-2-carboxylic acid [3-methoxy-4-(2-piperidin-1-yl-ethoxy)-phenyl]-amide]	–	–	–	–	–	–	–
–	–	–	17	–	9	9	O=C(Nc1ccc(CN2CCC(O)CC2)cc1)c1sc2ncnc3c2c1NC(=O)N3c1ccc(Oc2ccccc2)cc1 [Cpd 233, 4-oxo-5-(4-phenoxy-phenyl)-4,5-dihydro-3H-1-thia-3,5,6,8-tetraaza-acenaphthylene-2-carboxylic acid [4-(4-hydroxy-piperidin-1-ylmethyl)-phenyl]-amide]	38.3	2.2%	–	–	–	–	–
–	–	–	18	–	11	–	COC1CCN(Cc2ccc(NC(=O)c3sc4ncnc5c4c3NC(=O)N5c3ccc(Oc4ccccc4)cc3)cc2)CC1 [Cpd 261, 4-oxo-5-(4-phenoxy-phenyl)-4,5-dihydro-3H-1-thia-3,5,6,8-tetraaza-acenaphthylene-2-carboxylic acid [4-(4-methoxy-piperidin-1-ylmethyl)-phenyl]-amide]	75.4	86.1% and 80.1%	69.6	71	98	44	54.1
